Results on three compounds are retold here after US10350184B2, “Derivatives used in the treatment of muscle atrophy” (METABRAIN RESEARCH, priority 2015, dated 2019).

Assay [1] has as its system myostatin gene expression. The assay can be described thus: Measurement of myostatin expression in C2Cl2 (qPCR). It is filed as cell-based, Mouse. Particulars: for inhibition of the expression of myostatin: C2Cl2 cells, Table 1, 0.5 μm; for percentage of myostatin gene expression in cells in contact with the molecules related to the expression in the control cells: concentration of the compound 0.5 μm, 6 h, active if less than or close to 70%. The protocol:
C2Cl2 myoblastic cells (ATCC CRL-1772) are seeded in 24-well plates at the density of 30,000 cells per well and cultured in DMEM (Dulbecco's Modified Eagle Medium) medium containing glucose at 4.5 g/L and supplemented with fetal calf serum (10%) and antibiotics (penicillin and streptomycin). […] The cells are then placed in a glucose-depleted medium (DMEM containing 1 g/L of glucose) and devoid of serum in the presence of the test molecules or references (IGF-1 at a concentration of 100 ng/ml) for 6 h. At the end of the experiment, messenger RNAs (mRNAs) are extracted using standard phenol and chloroform methodology. Briefly, the cells are lysed in a solution of trizol (Sigma T9424) containing a strong acid and phenol. The mRNAs are separated from the proteins by the addition of chloroform followed by centrifugation. They are then precipitated in isopropanol and then suspended at the concentration of 1 μg/μL in ultra-pure water free of RNA and DNA. 1 μg of mRNA is then converted by retro-transcription into complementary DNA by the AMV enzyme in the presence a primer and a mixture of nucleotides according to the protocol given by the supplier (Applied Biosystems 4368814). […] QPCRs are performed on a 79001-IT Fast Real-Time PCR detection system (Applied Biosystems). The programming conditions are standard and consist of 1 cycle at 95° C. for 15 min, followed by 40 cycles at 95° C. for 15 sec and 60° C. for 1 min and finalized with a melt curve step at 60° C. and 95° C. The analyzed samples all contain 100 ng of cDNA, a qPCR buffer including the enzyme, the mixture of oligonucleotides and the intercalating SYBR green, and the pair of specific primers of the gene being studied, strategically chosen between two exon sequences and at a final concentration of 200 nM. Fluorescent probes bind to the double-stranded. DNA and fluoresce only once attached to the DNA. A fluorescence threshold is established by the program of the machine. When the amount of DNA allows the fluorescent probe to exceed this threshold, a PCR cycle number called “Ct” is obtained for “cycle threshold” or cycle threshold. It is this value that is the basis of the calculations to quantify the DNA in a relative fashion. A ratio R is set between the amount of the starting DNA in a sample and that of a control, which has not been treated (i.e., R=2^−(Ct Sample−Ct Control)) and this measurement will be compared to that of a household gene known to be unmodulated by the treatment (or R=2^−NRCt).
The primers used are recorded in the following table: […]
For the effects on myostatin expression, the results are expressed as a percentage of myostatin gene expression in cells in contact with the molecules related to the expression in the control cells. The product is supposed to be active if this ratio is less than or close to 70%, the average, value of IGF-1 found at the concentration of 100 ng/mL in this test, considered as reference.
For orientation: Quantitative PCR measures a nucleic acid by following its amplification.

For another assay, the system named is muscle cells. The assay can be described thus: Protein synthesis (via phosphorylation of S6K1) in muscle cells. To be noted: for Protein Synthesis (percentage increase in 56K phosphorylation in muscle cells): significant when greater than 120%. In kind it is cell-based. The method, then:
The cells are counted and seeded at a density of […] cells per well in a 24-well plate in a DMEM medium containing glucose at 4.5 g/L and supplemented with fetal calf serum (10%) and antibiotics (penicillin and streptomycin). […] The cells are then placed in a medium without glucose or leucine (Krebs medium) for 1 hour at 37° C., and then incubated for 2 hours and 30 minutes in the presence of the test products or reference, (IGF-1, 100 ng/ml) in serum-free DMEM medium containing radiolabeled leucine 2.5 μCi/mL. At the end of the incubation, the supernatants are removed and the cells are lysed in a 0.1N NaOH solution for 30 min. The radioactivity is measured in the cell fraction and the total protein amount is determined by Lowry assay. Each condition is evaluated at a minimum of n=6; IGF-1, 100 ng/mL is our control to stimulate protein synthesis. The results are expressed in cpm/μg of proteins after 2.5 hours of incubation or as a percentage with respect to the control condition.
For the effects on protein synthesis, the results are expressed as a percentage increase in 56K phosphorylation in muscle cells. This percentage is considered significant when it is greater than 120%, the observed average value of IGF-1 at the concentration of 100 ng/mL in this test, considered as reference.

The next assay concerns C2Cl2 cells. The assay can be described thus: Evaluation of muscle fiber diameter. In kind it is cell-based. Particulars: vs vehicle control. The protocol:
The C2Cl2 myoblastic cells (ATCC CRL-1772) were seeded into glycerol-treated 8-well plates at a density of 10,000 cells per well and cultured in a DMEM medium containing glucose at 4.5 g/L and supplemented with fetal calf serum (10%) and antibiotics (penicillin and streptomycin).
The cells are then placed in a glucose-depleted medium (DMEM containing 1 g/L of glucose) and devoid of serum in the presence of the test molecules or references (IGF-1 at the concentration of 10 ng/mL or dexamethasone 10 nM) for 3 days. At the end of the culture, the cells are rinsed and fixed with 2.5% glutaraldehyde/0.1% Triton solution for 1 hour at room temperature. The cell layer is covered with DAPI (fluorescent labeling of the cell nucleus). After storage in the dark for 16 hours in the cold, the slides are observed under a fluorescence microscope (Carl Zeiss, AxioVert 200) and the images are analyzed using the Axiovision 4.1 software to measure the diameter of the fibers.
C2Cl2 cells are differentiated and treated with compound 1 for the last three days of differentiation.

As for `CCON=C(CCC(=O)OC(C)C)c1ccc(Cl)c(Cl)c1` [Compound 3, Isopropyl acid 4-(3,4-dichlorophenyl)-4-ethoxyimino-butanoate], in assay [1], the “inhibition of the expression of myostatin” value is “significantly inhibit” and the “percentage of myostatin gene expression in cells in contact with the molecules related to the expression in the control cells” value amounted to 41%.

Take “IGF-1: reference used to inhibit myostatin expression, stimulate protein synthesis and increase myotube diameter [reference compound]”: in the assay on muscle cells (IGF-1 at 100 ng/mL), the “Protein synthesis, observed average value of reference” value is given as 120%. The “percentage of myostatin gene expression related to control cells, average value of reference” value in assay [1] (IGF-1 at 100 ng/mL) worked out at 70%. In the assay with C2Cl2 cells (IGF1 at 10 ng/ml, 3 days), the “diameter of myotubes (muscle fiber diameter, FIG. 1)” value is given as “significantly increases”.

For the compound `CCON=C(CCC(=O)O)c1ccc(Cl)c(Cl)c1` [Compound 1, 4-(3,4-dichlorophenyl)-4-ethoxyimino-butanoic acid], the “Protein Synthesis (percentage increase in 56K phosphorylation in muscle cells)” value in the assay on muscle cells (0.5 μm) turned out to be 134%; with muscle cells (5 μm) it was 142%; in the assay with muscle cells (50 μm), 151%. The “protein synthesis in muscle cells” value with muscle cells (concentration of 0.5 μM) was “significantly increases”. In addition, the “inhibition of the expression of myostatin” value in assay [1] was “significantly inhibit”. In addition, in assay [1], the “percentage of myostatin gene expression in cells in contact with the molecules related to the expression in the control cells” value was determined as 71%. In addition, the “diameter of the myotubes (muscle fiber diameter, FIG. 1)” value in the assay on C2Cl2 cells (compound 1 at 10 μM, last three days of differentiation) is given as “significantly increased”.
